The structures appear in SMILES notation.

For one test, the system named is Hs578t cells. The test can be described thus: Survival of adherent cells in response to GPX4 inhibition (crystal violet). It counts as cell-based. Particulars: Hs578t. As to the method:
(§1) Cell-based assays: Assays to assess survival in response to matrix detachment were performed as described (Brown C W, 2017). To assay survival in response to GPX4 inhibition, adherent cells in 96 well plates (1.0×10^4 per well) were treated with either DMSO, RSL3, ML210, FIN56 or erastin for 24 hrs with and without ferrostatin-1 or DFO. Subsequently, cells were fixed in 4% paraformaldehyde (Boston BioProducts), stained with crystal violet (Sigma) and read on a microplate reader (Beckman Colter) at absorbance 595. Absorbances were normalized to DMSO.

A further test has as its system MCF10A cells. Described as above. It is filed as cell-based. Here is the method: as §1
A further test relates to MDA-MB-231 cells. The description is as above. It is filed as cell-based. As to conditions: MDA-MB-231, prominin2 expression construct vs vector control. Here is the method: as §1
The test system of a further test is cancer cell lines. Particulars: across hundreds of cancer cells lines; cited from earlier work.
Another test relates to HCC1806. Briefly: Viability with RSL3 and KRIBB11 co-treatment. As to conditions: HCC1806, 10 uM KRIBB11, 24 hours. It is filed as cell-based. As to the method:
as §1

Another test concerns SW480. Briefly: Viability with RSL3 and KRIBB11 co-treatment. It counts as cell-based. As to conditions: SW480, 10 uM KRIBB11, 24 hours. As to the method:
as §1

In another test the test system is SW620. Briefly: Viability with RSL3 and KRIBB11 co-treatment. It counts as cell-based. Particulars: SW620, 10 uM KRIBB11, 24 hours. As to the method: as §1
The subject of another test is prominin2. The test can be described thus: PROM2 mRNA (qPCR) and prominin2 protein (immunoblot) expression in MCF10A cells. It is filed as cell-based. As to conditions: MCF10A, 10 uM KRIBB11, 25 uM 4HNE or 5 uM RSL3, 60 minutes. Here is the method:
Biochemical experiments: Immunoblotting and qPCR were performed as described (Brown C W, 2017). Briefly, for immunoblotting, cell lysates were extracted using radioimmunoprecipitation assay (RIPA) buffer (Boston Bioproducts). Extracts were separated by SDS PAGE using the specified antibodies. Immunoprecipitation was performed on lysates isolated using NP-40 buffer (Boston Bioproducts). Lysates were pre-cleared prior to overnight incubation with the primary antibody and protein A agarose beads (Sigma-Aldrich). Immune complexes were separated by SDS PAGE and immunoblotted as described in figure legends. RNA was isolated from cells (BioBasic) and cDNA was generated using the All in One cDNA Synthesis SuperMix (BioScript Solutions). qPCR was performed using a SYBR green master mix (BioScript Solutions). Sequences for primers used were as follows: […]

The next test concerns HSF1. The test can be described thus: HSF1 mRNA, protein, S326 phosphorylation and nuclear localization in MCF10A cells. It counts as cell-based. Particulars: 10 uM KRIBB11 with 4HNE or RSL3, 60 minutes.

Regarding `Cc1onc(C(=O)N2CCN(C(c3ccc(Cl)cc3)c3ccc(Cl)cc3)CC2)c1[N+](=O)[O-]` [ML210], the “sensitivity to compound in prominin2 knock-down cells compared to control cells” value in the test with Hs578t cells (prominin2 siRNA 48 hours, compound 24 hrs) is reported as “significant increase in sensitivity”; in the test with MCF10A cells (MCF10A, prominin2 siRNA 48 hours, compound 24 hrs) it was “significant increase in sensitivity”. In addition, in the test with MDA-MB-231 cells, the “cell death in response to compound with exogenous prominin2 expression” value is recorded as “sufficient to inhibit cell death”. Also, in the test on cancer cell lines, the “correlation of high prominin2 expression with response to compound” value was “significantly correlated with resistance”.

In the case of `CNc1ccc([N+](=O)[O-])c(Nc2ccc3[nH]ncc3c2)n1` [KRIBB11, N(2)-(1H-indazole-5-yl)-N(6)-methyl-3-nitropyridine-2,6-diamine], the “ability to resist RSL3-induced ferroptosis when co-treated with RSL3 and KRIBB11” value is “significantly reduced” with Hs578t cells (10 uM KRIBB11, 24 hours); “significantly reduced” in the test with HCC1806; “significantly reduced” in the test with SW480; “significantly reduced” with SW620. For the same compound, the “death induced by RSL3, FIN56, erastin, or imidazole ketone erastin on chemical inhibition of HSF1” value in the test with MCF10A cells (otherwise resistant cells, cell line not named at b53, FIG. 16E: MCF10A) is “sensitized otherwise resistant cells to death”. Further, the “upregulation of PROM2 mRNA and prominin2 protein expression in response to either 4HNE or RSL3” value in the test on prominin2 is listed as “prevented the upregulation”. In the test on HSF1, the “expression, phosphorylation and nuclear localization of HSF1” value is reported as “neither the expression, phosphorylation nor nuclear localization of HSF1 was affected”.

The values are drawn from patent US20210380988A1, “Reducing Prominin2-Mediated Resistance to Ferroptotic Cell Death” (University of Massachusetts, priority 2020, published 2021).
